From ChEMBL document CHEMBL3352656 (Bioorg Med Chem Lett, 2015) come the findings set out here.

The nature of series [1]: Mean residence time in Wistar rat at 0.4 mg/kg, iv by HPLC-MS/MS method. Particulars: in vivo. In kind it is ADME, organism-based. Details: dose 0.4 mg/kg, route intravenous.
The nature of series [2]: Permeability from apical to basolateral side in human Caco2 cells by HPLC-MS/MS method. The series is classed as ADME, cell-based. The conditions noted are these: Caco-2, read-out: permeability. Background: Caco-2 cells form a polarised layer with tight junctions and transporters.
Series [3] can be described thus: Oral bioavailability in Wistar rat at […] by HPLC-MS/MS method. In kind it is ADME, organism-based. Particulars: in vivo.
Series [4] is described as follows: Volume of distribution at steady state in Wistar rat at 0.4 mg/kg, iv by HPLC-MS/MS method. The series is classed as ADME, organism-based. Details: dose 0.4 mg/kg, route intravenous. The conditions noted are these: in vivo, read-out: Vdss.
Series [5] in a line: Permeability from basolateral to apical side in human Caco2 cells by HPLC-MS/MS method. The series is classed as ADME, cell-based. Particulars: Caco-2, read-out: permeability.

The term MRT denotes a mean duration of stay, worked out from the concentration-time curve. A word on the bioavailability: it is dose-corrected exposure relative to a reference, in per cent. For `CC(C)(C)c1cc(NC(=O)[C@@H]2CCCCN2C(=O)N2CCS(=O)(=O)CC2)no1`, in series [1], the MRT came to 36 min. For the same compound, the Papp A→B in series [2] amounted to 20 ×10⁻⁶ cm/s. This compound had a bioavailability in series [3] of 62%. In series [4], the Vd came to 0.5 L/kg. In addition, the Papp B→A in series [5] was determined as 22 ×10⁻⁶ cm/s.
